# Test results published in patent publication US20070128217A1 (priority 2003, published 2007).
# How the values were obtained:
# [1] = system: rabbit serum obtained by immunizing a rabbit with the SARS-CoV strain Frankfurt 1; type: binding; parameters: Binding of a rabbit serum to linear peptides / Binding of a rabbit serum to looped peptides / Rabbit serum linear peptides / Rabbit serum looped peptides / Binding of a rabbit serum to linear peptides of protein N of SARS-CoV Urbani (Rabbit serum linear peptides) / Binding of a rabbit serum to looped/cyclic peptides of protein N of SARS-CoV Urbani (Rabbit serum looped peptides): unit not given here
# [2] = system: antibodies in sera from SARS patients (sera 1a, 1b, 2, 6, 37, 62, London, SARS-yellow, SARS-green); type: binding, human; parameters: Binding of serum 6 to linear peptides of protein X1 of SARS-CoV Urbani / Binding of serum 37 to linear peptides of protein X1 of SARS-CoV Urbani / Binding of serum 6 to looped/cyclic peptide (PEPSCAN-ELISA) / Binding of serum 37 to looped/cyclic peptide (PEPSCAN-ELISA) / Binding of serum 37 to looped/cyclic peptides of protein X1 of SARS-CoV Urbani / Binding of serum 6 to linear peptides of protein X2 / Binding of serum 37 to linear peptides of protein X2 / Binding of serum 37 to looped/cyclic peptides of protein X2 of SARS-CoV Urbani / Binding of serum 6 to linear peptides of protein M of SARS-CoV Urbani / Binding of serum 37 to linear peptides of protein M of SARS-CoV Urbani / Binding of serum 6 to looped/cyclic peptides of protein M of SARS-CoV Urbani / Binding of serum 37 to looped/cyclic peptides of protein M of SARS-CoV Urbani / Binding of serum 6 to linear peptides of protein X3 of SARS-CoV Urbani / Binding of serum 37 to linear peptides of protein X3 of SARS-CoV Urbani / Binding of serum 37 to looped/cyclic peptides of protein X3 of SARS-CoV Urbani / Binding of serum 6 to linear peptides of protein X4 of SARS-CoV Urbani / Binding of serum 37 to linear peptides of protein X4 of SARS-CoV Urbani / Binding of serum 37 to looped/cyclic peptides of protein X4 of SARS-CoV Urbani / Binding of serum 6 to linear peptides of protein X5 of SARS-CoV Urbani / Binding of serum 37 to linear peptides of protein X5 of SARS-CoV Urbani / Binding of serum 37 to looped/cyclic peptides of protein X5 of SARS-CoV Urbani / Binding of serum 6 to linear peptides of protein N of SARS-CoV Urbani / Binding of serum 37 to linear peptides of protein N of SARS-CoV Urbani / Binding of serum 6 to linear peptide (PEPSCAN-ELISA) / Binding of serum 1a to looped/cyclic peptides of protein N of SARS-CoV Urbani / Binding of serum 1b to looped/cyclic peptides of protein N of SARS-CoV Urbani / Binding of serum 2 to looped/cyclic peptides of protein N of SARS-CoV Urbani / Binding of serum 6 to looped/cyclic peptides of protein N of SARS-CoV Urbani / Binding of serum 37 to looped/cyclic peptides of protein N of SARS-CoV Urbani / Binding of serum 62 to looped/cyclic peptides of protein N of SARS-CoV Urbani / Binding of serum London to looped/cyclic peptides of protein N of SARS-CoV Urbani / Binding of serum SARS-green to looped/cyclic peptides of protein N of SARS-CoV Urbani: unit not given here
# [3] = system: control sera (pooled serum of ten healthy LUMC hospital workers; commercial negative donor pooled serum from the Dutch bloodbank); type: binding, human; parameters: Binding of Control serum LUMC to linear peptides / Binding of Control serum Blood-bank to linear peptides / Binding of Control serum LUMC to looped peptides / Binding of Control Serum Blood-Bank to Looped peptides / Binding of Control serum LUMC to linear peptides of the protein M of SARS-CoV Urbani / Binding of Control serum Blood-bank to linear peptides of the protein M of SARS-CoV Urbani / Binding of Control serum LUMC to looped peptides of the protein M of SARS-CoV Urbani / Binding of Control Serum Blood-Bank to Looped peptides of the protein M of SARS-CoV Urbani: unit not given here
sequence,measurement,setting,value
KDYVVVHGYFTEVYY,Binding of a rabbit serum to linear peptides,[1],0.1
same,Binding of a rabbit serum to looped peptides,[1],0.5
same,Binding of serum 1a to linear peptides of protein X1 of SARS-CoV Urbani,[2],0.7
same,Binding of serum 1a to looped/cyclic peptides of protein X1 of SARS-CoV Urbani,[2],0.5
same,Binding of serum 1b to linear peptides of protein X1 of SARS-CoV Urbani,[2],0.6
same,Binding of serum 1b to looped/cyclic peptides of protein X1 of SARS-CoV Urbani,[2],0.4
same,Binding of serum 2 to linear peptides of protein X1 of SARS-CoV Urbani,[2],0.5
same,Binding of serum 2 to looped/cyclic peptides of protein X1 of SARS-CoV Urbani,[2],0.4
same,Binding of serum 6 to linear peptides of protein X1 of SARS-CoV Urbani,[2],0.4
same,Binding of serum 6 to looped/cyclic peptides of protein X1 of SARS-CoV Urbani,[2],0.2
same,Binding of serum 37 to linear peptides of protein X1 of SARS-CoV Urbani,[2],0.6
same,Binding of serum 37 to looped/cyclic peptides of protein X1 of SARS-CoV Urbani,[2],0.6
same,Binding of serum 62 to linear peptides of protein X1 of SARS-CoV Urbani,[2],0.5
same,Binding of serum 62 to looped/cyclic peptides of protein X1 of SARS-CoV Urbani,[2],0.5
same,Binding of serum London to linear peptides of protein X1 of SARS-CoV Urbani,[2],0.2
same,Binding of serum London to looped/cyclic peptides of protein X1 of SARS-CoV Urbani,[2],0.2
same,Binding of serum SARS-green to linear peptides of protein X1 of SARS-CoV Urbani,[2],0.2
same,Binding of serum SARS-green to looped/cyclic peptides of protein X1 of SARS-CoV Urbani,[2],0.2
same,Binding of serum SARS-yellow to linear peptides of protein X1 of SARS-CoV Urbani,[2],0.3
same,Binding of serum SARS-yellow to looped/cyclic peptides of protein X1 of SARS-CoV Urbani,[2],0.5
same,Binding of Control Serum Blood-Bank to Looped peptides,[3],0.5
same,Binding of Control serum Blood-bank to linear peptides,[3],0.5
same,Binding of Control serum LUMC to linear peptides,[3],0.6
same,Binding of Control serum LUMC to looped peptides,[3],0.5
KIILFLTLIVFTSCE,Rabbit serum linear peptides,[1],0.7
same,Rabbit serum looped peptides,[1],0.9
same,Binding of serum 1a to linear peptides of protein X4 of SARS-CoV Urbani,[2],0.8
same,Binding of serum 1a to looped/cyclic peptides of protein X4 of SARS-CoV Urbani,[2],0.9
same,Binding of serum 1b to linear peptides of protein X4 of SARS-CoV Urbani,[2],0.9
same,Binding of serum 1b to looped/cyclic peptides of protein X4 of SARS-CoV Urbani,[2],0.2
same,Binding of serum 2 to linear peptides of protein X4 of SARS-CoV Urbani,[2],0.7
same,Binding of serum 2 to looped/cyclic peptides of protein X4 of SARS-CoV Urbani,[2],0.8
same,Binding of serum 6 to linear peptides of protein X4 of SARS-CoV Urbani,[2],0.7
same,Binding of serum 6 to looped/cyclic peptides of protein X4 of SARS-CoV Urbani,[2],0.6
same,Binding of serum 37 to linear peptides of protein X4 of SARS-CoV Urbani,[2],1.1
same,Binding of serum 37 to looped/cyclic peptides of protein X4 of SARS-CoV Urbani,[2],0.9
same,Binding of serum 62 to linear peptides of protein X4 of SARS-CoV Urbani,[2],0.9
same,Binding of serum 62 to looped/cyclic peptides of protein X4 of SARS-CoV Urbani,[2],0.9
same,Binding of serum London to linear peptides of protein X4 of SARS-CoV Urbani,[2],0.8
same,Binding of serum London to looped/cyclic peptides of protein X4 of SARS-CoV Urbani,[2],0.4
same,Binding of serum SARS-green to linear peptides of protein X4 of SARS-CoV Urbani,[2],0.7
same,Binding of serum SARS-green to looped/cyclic peptides of protein X4 of SARS-CoV Urbani,[2],0.7
same,Binding of serum SARS-yellow to linear peptides of protein X4 of SARS-CoV Urbani,[2],0.9
same,Binding of serum SARS-yellow to looped/cyclic peptides of protein X4 of SARS-CoV Urbani,[2],0.8
same,Binding of Control Serum Blood-Bank to Looped peptides,[3],0.8
same,Binding of Control serum Blood-bank to linear peptides,[3],0.8
same,Binding of Control serum LUMC to linear peptides,[3],0.9
same,Binding of Control serum LUMC to looped peptides,[3],0.9
KILVRYNTRGNTYST,Rabbit serum linear peptides,[1],0.7
same,Rabbit serum looped peptides,[1],0.4
same,Binding of serum 1a to linear peptides of protein X5 of SARS-CoV Urbani,[2],0.7
same,Binding of serum 1a to looped/cyclic peptides of protein X5 of SARS-CoV Urbani,[2],0.5
same,Binding of serum 1b to linear peptides of protein X5 of SARS-CoV Urbani,[2],0.5
same,Binding of serum 1b to looped/cyclic peptides of protein X5 of SARS-CoV Urbani,[2],0.3
same,Binding of serum 2 to linear peptides of protein X5 of SARS-CoV Urbani,[2],0.7
same,Binding of serum 2 to looped/cyclic peptides of protein X5 of SARS-CoV Urbani,[2],0.5
same,Binding of serum 6 to linear peptides of protein X5 of SARS-CoV Urbani,[2],0.7
same,Binding of serum 6 to looped/cyclic peptides of protein X5 of SARS-CoV Urbani,[2],0.5
same,Binding of serum 37 to linear peptides of protein X5 of SARS-CoV Urbani,[2],0.7
same,Binding of serum 37 to looped/cyclic peptides of protein X5 of SARS-CoV Urbani,[2],0.5
same,Binding of serum 62 to linear peptides of protein X5 of SARS-CoV Urbani,[2],0.8
same,Binding of serum 62 to looped/cyclic peptides of protein X5 of SARS-CoV Urbani,[2],0.7
same,Binding of serum London to linear peptides of protein X5 of SARS-CoV Urbani,[2],0.7
same,Binding of serum London to looped/cyclic peptides of protein X5 of SARS-CoV Urbani,[2],0.3
same,Binding of serum SARS-green to linear peptides of protein X5 of SARS-CoV Urbani,[2],0.5
same,Binding of serum SARS-green to looped/cyclic peptides of protein X5 of SARS-CoV Urbani,[2],0.3
same,Binding of serum SARS-yellow to linear peptides of protein X5 of SARS-CoV Urbani,[2],0.1
same,Binding of serum SARS-yellow to looped/cyclic peptides of protein X5 of SARS-CoV Urbani,[2],0.6
same,Binding of Control Serum Blood-Bank to Looped peptides,[3],0.5
same,Binding of Control serum Blood-bank to linear peptides,[3],0.8
same,Binding of Control serum LUMC to linear peptides,[3],0.6
same,Binding of Control serum LUMC to looped peptides,[3],0.6
KLFIRQEEVQQELYS,Rabbit serum linear peptides,[1],0.5
same,Rabbit serum looped peptides,[1],0.5
same,Binding of serum 1a to linear peptides of protein X4 of SARS-CoV Urbani,[2],0.7
same,Binding of serum 1a to looped/cyclic peptides of protein X4 of SARS-CoV Urbani,[2],0.7
same,Binding of serum 1b to linear peptides of protein X4 of SARS-CoV Urbani,[2],0.5
same,Binding of serum 1b to looped/cyclic peptides of protein X4 of SARS-CoV Urbani,[2],0.6
same,Binding of serum 2 to linear peptides of protein X4 of SARS-CoV Urbani,[2],0.4
same,Binding of serum 2 to looped/cyclic peptides of protein X4 of SARS-CoV Urbani,[2],0.6
same,Binding of serum 6 to linear peptides of protein X4 of SARS-CoV Urbani,[2],0.5
same,Binding of serum 6 to looped/cyclic peptides of protein X4 of SARS-CoV Urbani,[2],0.4
same,Binding of serum 37 to linear peptides of protein X4 of SARS-CoV Urbani,[2],0.7
same,Binding of serum 37 to looped/cyclic peptides of protein X4 of SARS-CoV Urbani,[2],0.7
same,Binding of serum 62 to linear peptides of protein X4 of SARS-CoV Urbani,[2],0.8
same,Binding of serum 62 to looped/cyclic peptides of protein X4 of SARS-CoV Urbani,[2],0.6
same,Binding of serum London to linear peptides of protein X4 of SARS-CoV Urbani,[2],0.7
same,Binding of serum London to looped/cyclic peptides of protein X4 of SARS-CoV Urbani,[2],0.3
same,Binding of serum SARS-green to linear peptides of protein X4 of SARS-CoV Urbani,[2],0.6
same,Binding of serum SARS-green to looped/cyclic peptides of protein X4 of SARS-CoV Urbani,[2],0.8
same,Binding of serum SARS-yellow to linear peptides of protein X4 of SARS-CoV Urbani,[2],0.4
same,Binding of serum SARS-yellow to looped/cyclic peptides of protein X4 of SARS-CoV Urbani,[2],0.6
same,Binding of Control Serum Blood-Bank to Looped peptides,[3],0.8
same,Binding of Control serum Blood-bank to linear peptides,[3],0.5
same,Binding of Control serum LUMC to linear peptides,[3],0.5
same,Binding of Control serum LUMC to looped peptides,[3],0.8
